Like-named read-outs stand apart in the source and are kept apart here.
What was measured:
Format in all cases: biochemical
Papain = biological target: T1, Papain (Carica papaya, UniProt P00784); assay: Inhibition of Papain (protocol as for Cathepsine K)
T1 construct: purchased Sigma
T1 sequence (P00784 134-345): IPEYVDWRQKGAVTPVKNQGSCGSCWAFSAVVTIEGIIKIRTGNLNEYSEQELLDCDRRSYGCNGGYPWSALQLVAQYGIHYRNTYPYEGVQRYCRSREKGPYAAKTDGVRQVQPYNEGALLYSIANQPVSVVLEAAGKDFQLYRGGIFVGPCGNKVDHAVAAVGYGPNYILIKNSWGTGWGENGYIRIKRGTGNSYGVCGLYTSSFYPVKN
Method: (§1) Les produits à tester (10 mM) sont dilués à 1 mM en DMSO et repartis dans des plaques 96 puits polystyrène Nunc à raison de 2 µl par puits. La colonne 12 de la plaque est réservée pour les contrôles et reçoit donc […] de DMSO (sans produits) par puits. Les plaques sont conservées à -80°C et décongelées le jour de l'expérience.
(§2) Les produits sont dilués à 50 µM par addition de 38 µl de tampon réaction : acétate de sodium 100 mM, EDTA 5 mM, DTT 1 mM pH 5,5. L'addition ainsi que tous les pipetages suivant sont réalisés par un pipeteur 96 cônes CybiWell. Après mélange des solutions, chaque produit est transféré dans 2 puits (duplicates) d'une plaque 384 puits noire Greiner à raison de 10 µl par puits. On peut donc tester 2 plaques 96 dans une plaque 384.
(§3) Une solution de substrat à 50 µM, Z-Val-arg-AMC (Calbiochem), est préparée dans le tampon réaction . Le substrat, est ensuite distribué dans tous les puits de la plaque 384 (20 µl par puits).
(§4) Une solution de Cathepsine K à 12,5 ng/ml est préparée dans le tampon réaction et distribuée dans tous les puits de la plaque 384 (20 µl par puits) exceptés les 16 puits servant de contrôles 100 % d'inhibition (colonne 23 et 24, lignes I à P) qui recevront 20 µl de tampon sans enzyme. Les contrôles […] d'inhibition sont réalisés dans les colonnes 23 et 24, lignes A à H qui ne contiennent pas de produits.
(§5) Les plaques sont ensuite incubées 2H à température ambiante, puis lues sur Fluoroskan (Labsystems) : excitation 390 nm; émission 460 nm
(§6) Les concentrations finales de chacun des réactifs sont : Produits 10 µM, Substrat 20 µM, enzyme 5 ng/ml.
(§7) Les % d'inhibition pour chacun des produits sont calculés en utilisant les points à 0 et 100 % d'inhibition de chaque plaque comme références. Les produits présentant une inhibition significative sont ensuite retestés sur une gamme de concentration allant de 50 à 0,5µM pour déterminer une IC50.
Etude de l'inhibition de Papain:
Protocole identique à celui de Cathepsine K exceptés : • Papain (Sigma), solution à 50 ng/ml, concentration finale 20 ng/ml • Incubation 30 min à température ambiante

Cathepsine K = biological target: T2, Cathepsine K (Homo sapiens, UniProt P43235); assay: Inhibition of Cathepsine K (fluorogenic substrate Z-Val-arg-AMC); settings: substrate Z-Val-arg-AMC 20 µM, enzyme 5 ng/ml, pH 5.5, 2 h at room temperature; concentration range 50 to 0.5 µM; read-out: IC50 µM Cathepsin K
T2 sequence (P43235 115-329): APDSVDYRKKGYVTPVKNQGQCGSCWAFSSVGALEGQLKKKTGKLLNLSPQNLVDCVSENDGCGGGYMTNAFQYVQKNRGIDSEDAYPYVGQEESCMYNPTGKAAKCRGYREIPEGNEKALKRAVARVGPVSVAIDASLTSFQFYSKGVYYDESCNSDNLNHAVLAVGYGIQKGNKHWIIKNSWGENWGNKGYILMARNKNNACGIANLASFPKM
Method: Etude de l'inhibition de Cathepsine K :
as §1, §2, §3, §4, §5, §6, §7

Cathepsine B = biological target: T3, Cathepsine B (Homo sapiens, UniProt P07858); assay: Inhibition of Cathepsine B (fluorogenic substrate Z-arg-arg-AMC); settings: substrate Z-arg-arg-AMC 20 µM, enzyme 16 ng/ml, 1 h at room temperature; read-out: IC50 µM Cathepsin B
T3 construct: purchased Calbiochem
Method: as §1, §2, §3, §4, §5, §6, §7
Etude de l'inhibition de Cathepsine B: […]

Molecule | IC50 (Cathepsine K) [µM] | IC50 (Cathepsine B) [µM] | further results
CC(C)(C)Oc1ccc(C[C@H](NC(=O)[C@@H]2CCCN3C(=O)CC[C@H](NC(=O)Nc4ccc(Oc5ccccc5)cc4)C(=O)N23)C(=O)C=[N+]=[N-])cc1 [Exemple 54, 9-[(9S)-[[(4-phenoxyphenyl)amino]carbonyl]amino]-N-[(2S)-4-diazo-1-[4-[(1,1-dimethyl)ethoxy]phenyl]-3-oxo-2-butyl]-6H-(1S)-pyridazino[1,2-a][1,2]diazepine-1-carboxamide] |  |  | IC50 (Papain): 15 µM
C=CCOC(=O)CC[C@H](NC(=O)[C@@H]1CCCN2C(=O)CC[C@H](NC(=O)NC3CCCCC3)C(=O)N12)C(=O)COC(=O)c1c(Cl)cccc1Cl [Exemple 122, (4S) 6-[(2,6-dichlorobenzoyl)oxy] -4-[[[(1S,9S)-9-[[(cyclohexylamino)carbonyl]amino]-octahydro-6,10-dioxo-6H-pyridazino[1,2-a][1,2]diazepine-1-yl]carbonyl]amino]-5-oxo-Hexanoatede (2-propenyle)] | 18 | 0.7 | 
C=CCOC(=O)CC[C@H](NC(=O)[C@@H]1CCCN2C(=O)CC[C@H](NC(=O)NCCc3cccs3)C(=O)N12)C(=O)CSc1nnnn1-c1ccccc1 [Exemple 138, (4S) 6-[(1-phenyl-1H-tetrazol-5-yl)thio]-4-[[[(1S,9S)-9-[[[[2-(thien-2-yl)-ethyl]amino]carbonyl]amino]-octahydro-6,10-dioxo-6H-pyridazino[1,2-a][1,2]diazepine-1-yl]carbonyl]amino]-5-oxo-Hexanoatede (2-propenyle)] |  |  | IC50 (Papain; enzyme 20 ng/ml, 30 min at room temperature, read-out: IC50 µM Papain): 8 µM
C=CCOC(=O)CC[C@H](NC(=O)[C@@H]1CCCN2C(=O)CC[C@H](NC(=O)NCCc3cccs3)C(=O)N12)C(=O)COC(=O)c1c(Cl)cccc1Cl [Exemple 141, (4S) 6-[(2,6-dichlorobenzoyl)oxy]-4-[[[(1S,9S)-9-[[[[2-(thien-2-yl)-ethyl]amino]carbonyl]amino]-octahydro-6,10-dioxo-6H-pyridazino[1,2-a][1,2]diazepine-1-yl]carbonyl]amino]-5-oxo-Hexanoatede (2-propenyle)] | 9 | 0.7 | 
C=CCOC(=O)CC[C@H](NC(=O)[C@@H]1CCCN2C(=O)CC[C@H](NS(C)(=O)=O)C(=O)N12)C(=O)COC(=O)c1c(Cl)cccc1Cl [Exemple 150, (4S) 6-[(2,6-dichlorobenzoyl)oxy]-4-[[[(1S,9S)-9-[(methylsulfonyl)amino]-octahydro-6,10-dioxo-6H-pyridazino[1,2-a] [1,2]diazepine-1-yl]carbonyl]amino]-5-oxo-Hexanoatede (2-propenyle)] | 6 | 0.6 | 
COC(=O)CCCC(=O)OCC(=O)[C@H](Cc1ccccc1)NC(=O)[C@@H]1CCCN2C(=O)CC[C@H](NC(=O)Nc3ccc(Oc4ccccc4)cc3)C(=O)N12 [Exemple 217] |  |  | IC50 (Papain; read-out: IC50 µM Papain, enzyme 20 ng/ml, 30 min at room temperature): 7 µM
CC(C)C[C@H](NC(=O)[C@@H]1CCCN2C(=O)CC[C@H](NS(=O)(=O)c3ccc(C(F)(F)F)cc3)C(=O)N12)C(=O)C=[N+]=[N-] [Exemple 347, 9-[(9S)-[[4-(trifluoromethyl)phenyl]sulfonyl]amino]-N-((3S)-1-diazo-5-methyl-2-oxo-3-hexyl)-octahydro-6,10-dioxo-6H-(1S)-pyridazino[1,2-a][1,2]diazepine-1-carboxamide] | 12 |  | 
(4S) 6-diazo-4-[[[(1S,9S)-9-[[[[2-(p-2-yl)-ethyl]amino]carbonyl]amino]-octahydro-6,10-dioxo-6H-pyridazino[1,2-a][1,2]diazepine-1-yl]carbonyl]amino]-5-oxo-Hexanoate de (2-propenyle) [Exemple 44] | 2 |  | 
